Measured values published in BindingDB's records for doi:10.1111/j.1747-0285.2007.00594.x (Pfizer, 2007).

Columns and labels:
Assay in all cases: Enzymatic Activity Assay
Conditions in all cases: pH 7.5; 22 °C
[1] = molecular target: Serine/threonine-protein kinase PLK3 (Homo sapiens, UniProt Q9H4B4)
[2] = molecular target: Serine/threonine-protein kinase PLK2 (Homo sapiens, UniProt Q9NYY3)
[3] = molecular target: Serine/threonine-protein kinase PLK1 (Homo sapiens, UniProt P53350)
Sequence of Serine/threonine-protein kinase PLK1 (P53350 whole entry): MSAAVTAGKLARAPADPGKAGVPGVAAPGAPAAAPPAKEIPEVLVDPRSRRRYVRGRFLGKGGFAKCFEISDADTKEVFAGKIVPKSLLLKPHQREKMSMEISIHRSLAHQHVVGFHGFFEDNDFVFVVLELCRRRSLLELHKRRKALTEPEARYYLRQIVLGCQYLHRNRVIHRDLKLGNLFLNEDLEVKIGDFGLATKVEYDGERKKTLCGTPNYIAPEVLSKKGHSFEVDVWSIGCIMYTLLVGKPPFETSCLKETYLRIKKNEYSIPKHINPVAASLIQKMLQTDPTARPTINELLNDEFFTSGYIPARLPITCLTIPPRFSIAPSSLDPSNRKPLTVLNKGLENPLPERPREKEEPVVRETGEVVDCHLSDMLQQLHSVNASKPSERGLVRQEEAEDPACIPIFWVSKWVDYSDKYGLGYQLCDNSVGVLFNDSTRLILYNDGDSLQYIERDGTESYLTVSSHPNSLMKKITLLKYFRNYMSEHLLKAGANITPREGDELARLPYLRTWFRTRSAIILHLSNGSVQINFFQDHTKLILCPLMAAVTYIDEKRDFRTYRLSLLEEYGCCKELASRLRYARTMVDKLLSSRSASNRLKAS

Sequence of Serine/threonine-protein kinase PLK3 (Q9H4B4 whole entry): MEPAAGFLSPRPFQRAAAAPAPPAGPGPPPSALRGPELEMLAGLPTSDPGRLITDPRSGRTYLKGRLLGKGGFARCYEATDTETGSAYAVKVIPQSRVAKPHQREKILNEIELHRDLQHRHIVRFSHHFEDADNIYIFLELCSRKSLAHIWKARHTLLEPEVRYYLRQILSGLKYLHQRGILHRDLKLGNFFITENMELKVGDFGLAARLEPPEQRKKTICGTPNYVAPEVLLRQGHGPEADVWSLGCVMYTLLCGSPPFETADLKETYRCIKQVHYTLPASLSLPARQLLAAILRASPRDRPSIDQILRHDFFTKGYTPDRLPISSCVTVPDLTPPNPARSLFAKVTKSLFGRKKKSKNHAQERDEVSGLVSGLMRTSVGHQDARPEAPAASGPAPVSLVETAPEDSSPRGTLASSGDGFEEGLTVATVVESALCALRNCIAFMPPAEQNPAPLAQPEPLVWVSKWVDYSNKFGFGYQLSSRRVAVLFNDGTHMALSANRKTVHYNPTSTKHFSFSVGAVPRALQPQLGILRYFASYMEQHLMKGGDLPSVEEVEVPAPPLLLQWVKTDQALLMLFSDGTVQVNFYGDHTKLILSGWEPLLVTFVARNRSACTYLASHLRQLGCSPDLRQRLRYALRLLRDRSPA
Sequence of Serine/threonine-protein kinase PLK2 (Q9NYY3 whole entry): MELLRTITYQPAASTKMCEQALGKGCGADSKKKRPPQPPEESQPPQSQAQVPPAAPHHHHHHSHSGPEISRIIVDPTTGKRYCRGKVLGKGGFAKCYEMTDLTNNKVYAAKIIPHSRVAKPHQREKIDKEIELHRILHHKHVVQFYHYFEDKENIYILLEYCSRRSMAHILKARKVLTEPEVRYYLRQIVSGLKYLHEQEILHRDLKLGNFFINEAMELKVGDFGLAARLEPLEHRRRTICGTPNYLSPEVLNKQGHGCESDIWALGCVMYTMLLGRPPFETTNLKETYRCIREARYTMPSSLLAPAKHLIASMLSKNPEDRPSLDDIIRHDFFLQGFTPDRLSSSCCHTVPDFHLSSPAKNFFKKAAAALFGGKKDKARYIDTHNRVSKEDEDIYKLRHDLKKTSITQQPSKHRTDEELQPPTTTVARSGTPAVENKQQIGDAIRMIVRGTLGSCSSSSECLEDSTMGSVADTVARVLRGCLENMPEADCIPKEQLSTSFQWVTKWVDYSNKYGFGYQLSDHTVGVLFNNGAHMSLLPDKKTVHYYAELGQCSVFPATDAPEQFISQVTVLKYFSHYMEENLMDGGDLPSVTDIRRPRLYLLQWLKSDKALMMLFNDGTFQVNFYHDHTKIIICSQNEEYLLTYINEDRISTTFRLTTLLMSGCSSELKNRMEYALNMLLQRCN

Row | IC50 [1] | IC50 [2] | IC50 [3] | Structure (SMILES)
1 | 2.58 µM | > 10 µM | 0.145 µM | COc1cc(N2CCN(C)CC2)ccc1Nc1ncc(C(C)=O)c(NC2CCCC2)n1 [1-[4-(cyclopentylamino)-2-{[2-methoxy-4-(4-methylpiperazin-1-yl)phenyl]amino}pyrimidin-5-yl]ethan-1-one]
2 | 3.49 µM | 0.367 µM | 0.345 µM | CC(=O)c1cnc(Nc2ccc(N3CCN(C)CC3)cc2)nc1NC1CCCC1 [1-[4-(cyclopentylamino)-2-{[4-(4-methylpiperazin-1-yl)phenyl]amino}pyrimidin-5-yl]ethan-1-one]
3 | 0.0067 µM | 0.0115 µM | 0.005 µM | CC[C@@H]1C(=O)N(C)c2cnc(Nc3ccc(C(=O)NC4CCN(C)CC4)cc3)nc2N1C1CCCC1 [4-{[(7R)-8-cyclopentyl-7-ethyl-5-methyl-6-oxo-5,6,7,8-tetrahydropteridin-2-yl]amino}-N-(1-methylpiperidin-4-yl)benzamide]
